Measurements published in publication PMC10223284, “Category-Based Toxicokinetic Evaluations of Data-Poor Per- and Polyfluoroalkyl Substances (PFAS) using Gas Chromatography Coupled with Mass Spectrometry” (Toxics, 2023).
Values joined by “and” are separate entries in the source; they are usually repeats but may differ in a detail not shown here. Equal entries are not always repeated. Where two headings read alike, the source gives them in different places.

Columns and labels:
human primary cells = conditions: cited from earlier work
[1] = Hepatic metabolic stability (hepatocyte clearance) assay, substrate depletion; assay type: in vitro ADME, human; conditions: both sexes, human
From the text: (§1) William’s Medium E (Gibco A1217601), dexamethasone, and cell maintenance cocktail B (Gibco CM4000) were obtained from Thermo Fisher Scientific (Waltham, MA, USA). Hepatosure OptiThaw media (P/N K8000; Lot No. 18–1–0322) was obtained from Sekisui Xenotech (Kansas City, KS, USA). Trypan blue solution (P/N 1450021) was obtained from Bio-Rad (Hercules, CA, USA). Pooled human cryopreserved primary hepatocyte suspensions were obtained from BioIVT (Westbury, NY, USA) and produced using nontransplantable tissue. The human 50-donor pool (mixed gender; Cat X0080005; Lot MYC), selected from BioIVT’s commercially available, prepooled lots, was selected following review of vendor-generated metabolic characterization information. Pooled, mixed-sex human plasma from de-identified donors was obtained from a commercial vendor that operates a U.S. Food and Drug Administration-licensed and inspected donor center (BioIVT bioivt.com (accessed 12 May 2023). Donors comprised five males and five females and ranged from 20 to 50 years of age. Plasma collected using anticoagulant K2EDTA was sterile-filtered ([…]) and stored at <−70 °C until use.
(§2) The hepatic metabolic stability assay measures the loss of a parent compound over time in a substrate-depletion approach. Briefly, hepatocyte suspensions, after a viability assessment, were diluted in complete William’s medium E (containing dexamethasone and cell maintenance cocktail B) prior to addition to 96-well polypropylene plates containing an equal volume of media spiked with the test compound (1 μM assay concentration; assay cell density = 50,000 cells/100 μL) and maintained at 37 °C with shaking. At each time point, relevant plates were crashed with an equal volume of ice-cold acetonitrile, centrifuged, and supernatant transferred to a new plate prior to storage at <−70 °C until quantitative analysis. Controls, run in parallel, included cell-free (i.e., media only) and metabolically inactivated hepatocytes to evaluate abiotic chemical stability in the aqueous media matrix with and without cellular protein. In preliminary runs, these controls were run at T0 and T240 only. If significant instability was noted, the hepatocyte clearance assay was rerun, including cell-free samples at each time point and metabolically inactivated hepatocytes at selected time points.
(§3) To process samples for quantitative analysis, samples were thawed and mixed. An aliquot of sample was removed and diluted in acetonitrile (1 part sample plus 9 parts acetonitrile) containing the relevant ISs selected for the PFAS being analyzed (See Table S2). The target at instrument concentration of each IS was 10 pg/μL.
(§4) The curves were generated using concentration/response ratios from the target analyte and IS, with either linear or quadratic regression models. The model and weighting, if necessary, were chosen to most accurately reflect the response of each compound and was evaluated by recalculating the individual calibration points using the curve. An acceptable model reflected an accuracy of ±30% of the theoretical value.
(§5) Hepatic metabolic clearance data were plotted in semi-log format (ln concentration vs. time) with three replicates at each time point, as previously described. […] The equations described below are used to calculate the chemical half-life (T½) and intrinsic in vitro clearance (Clin vitro) with units of μL/(min × million hepatocytes). In Equation (3), 2000 is a scalar used to adjust the assay cell number up to be consistent with units of 1 million cells in the Clint equation.
(§6) Negative controls, including media only and metabolically inactivated hepatocyte controls, were included to monitor abiotic loss (i.e., background clearance) during the assay. Where significant compound loss occurred using the analysis described above, background clearance rates were calculated and used to background-adjust hepatic metabolic clearance rates. […]

[2] = test system: pooled human cryopreserved primary hepatocyte suspensions; assay: as above; assay type: in vitro ADME
From the text: as §1, §2, §3, §4, §5, §6

[3] = In vitro-in vivo extrapolation (IVIVE) to Css and administered equivalent dose (AED); parameters: species or system human
Experimental: Using the experimentally generated PPB (fraction unbound in plasma, fup) and hepatic Clint data, IVIVE was performed as previously described to calculate human steady-state plasma concentrations (Css). Briefly, experimental measures of fup are adjusted using blood:plasma partitioning information to estimate the fraction unbound in blood (fub). Experimental hepatocyte Clint data are scaled up to represent whole-liver clearance (L/h). […] Once estimated, these Css values are considered in conjunction with published in vitro bioactivity concentrations (i.e., lowest-observed effective concentrations, or LOECs) to calculate AEDs (Table 2). See Table S10 for all relevant IVIVE inputs, scalars, calculations, and outputs.

human plasma [4] = assay: Chemical stability in plasma over the UC assay time course (T5hr/T1hr)
human plasma [5] = assay: Ultracentrifugation (UC) plasma protein binding assay, fraction unbound in plasma (fup)
[6] = Abiotic loss in negative controls of the hepatocyte clearance assay (cell-free media, metabolically inactivated hepatocytes); assay type: in vitro ADME
In short: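 Test compound at 1 μM incubated at 37 °C with shaking in complete William's medium E, either cell-free or with metabolically inactivated hepatocytes, then quenched with ice-cold acetonitrile for quantitative analysis.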

in vitro = conditions: both, human, plasma
[7] = hepatocyte incubation, Rep 1-3, start conc 1000 nM

NC(=O)C(F)(F)C(F)(F)C(F)(F)C(F)(F)F [Nonafluoropentanamide]
LOEC (human primary cells; BioSeek lowest-observed effect concentration used for AED): 7.00 µM | LOEC (human primary cells; minimum lowest-observed effect concentration, BioSeek platform): 7 µM | hepatocyte CLint at 1 μM ([1]; hepatocytes, background-subtracted, read-out: Bkgd-Sub Clearance (µL/min/106 hepatocytes)): 26 µL/min/1e6 cells | hepatocyte CLint at 1 μM ([1]; hepatocytes, hepatocyte clearance, Conc 1000 nM, not background adjusted, read-out: Unadj Clint): 34.9 µL/min/1e6 cells | hepatocyte CLint at 1 μM ([1]; hepatocytes, pooled human hepatocyte suspensions, 1 μM, read-out: In Vitro Clint): 26 µL/min/1e6 cells | hepatocyte CLint at 1 μM ([1]; hepatocytes, unadjusted hepatocyte intrinsic clearance, read-out: Unadj in vitro Clint): 34.9 µL/min/1e6 cells | hepatocyte CLint at 1 μM ([1]; hepatocytes, hepatocyte time course, NS = slope not significant, read-out: Linear Regression Results, Best-Fit Values, Clearance): 34.9 µL/min/1e6 cells | half-life at 1 μM ([1]; hepatocytes, hepatocyte time course, NS = slope not significant, read-out: Linear Regression Results, Best-Fit Values, Half Life): 0.661 h | hepatocyte CLint at 1 μM ([1]; s9, Bayesian analysis median, 1 μM assay concentration (Table S9), read-out: Clint.1.Med): 88.7 µL/min/1e6 cells | Concentration (nM), Time 0 min [2, 7]: 390.162 nM and 651.917 nM and 499.488 nM | Concentration (nM), Time 15 min [2, 7]: 214.882 nM and 126.475 nM and 193.144 nM | Concentration (nM), Time 30 min [2, 7]: 192.232 nM and 153.873 nM and 192.317 nM | Concentration (nM), Time 60 min [2, 7]: 74.6949 nM and 76.5031 nM and 55.8443 nM | Concentration (nM), Time 120 min [2, 7]: 22.6965 nM and 21.4336 nM and 13.3509 nM | Linear Regression Results, Best-Fit Values, Slope ([2]; hepatocyte time course): -0.01747 | Css ([3]; Assuming 1 mg/kg/day dose rate, BW 70 kg): 0.06 mg/L and 0.23 uM | Clhep ([3]; IVIVE, hepatocyte Clint scaled to whole-liver clearance): 47.130 L/h | AED ([3]; administered equivalent dose from LOEC and Css): 31.0338 mg/kg/day | Fub ([3]; fub=fup/(B:P), Fub set to 1 if needed): 0.3609 | Css ([3]; human steady-state plasma concentration, assuming 1 mg/kg/day dosage): 0.23 µM | CLint ([3]; scaled with HPGL 110 mill cells/g, Vl 1596 g): 4569125 µL/min | PPB_Stab_Fail (human plasma [4]; flag for stability failure in the plasma protein binding assay (1 = fail, 0 = pass)): 0 | Mean Stability (T5hr/T1hr) (human plasma [4]; mean over all UC runs and replicates, human plasma): 0.975 | Fstable.Med (human plasma [4]; median fraction stable in plasma, UC assay Level4): 0.999 | Stability (T5hr/ T1hr), Run-specific Avg (human plasma [4]; run-specific average): 0.945 | fup (human plasma [5]; human plasma, 10 μM, ultracentrifugation, 37 °C): 0.1985 | Fup.Med (human plasma [5]; median fraction unbound in plasma, UC assay Level4): 0.192 | Fup.point (human plasma [5]; point estimate of fraction unbound in plasma, UC assay Level4): 0.199 | half-life at 1 μM ([6]; both sexes, human, heat treated hepatocytes control, 0 vs 240 min, read-out: HT BkgdCl, Half Life): 1.58 h | half-life at 1 μM ([6]; buffer, no cells control, 0 vs 240 min, read-out: No Cells BkgdCl, Half Life): 2.59 h | Hep_Stab_Fail ([6]; flag for stability failure in hepatocyte clearance assay controls (1 or Fst = fail, 0 = pass)): 0 | HT BkgdCl, Slope ([6]; heat treated hepatocytes control, 0 vs 240 min): -0.007311 | No Cells BkgdCl, Slope ([6]; no cells control, 0 vs 240 min): -0.004457 | Negative Controls, No cells (NC), concentration at 0 min ([6]; no cells, Rep 1-3): 364.995 nM and 386.302 nM and 296.545 nM | Negative Controls, No cells (NC), concentration at 240 min ([6]; no cells, Rep 1-3): 132.756 nM and 122.614 nM and 103.779 nM | fraction unbound (in vitro; Fraction Unbound (fu), Run-specific Avg, run-specific average): 0.2 | fraction unbound (in vitro; Fraction Unbound (fu), replicate A, individual replicate A of the UC run dated in c8): 0.228 | fraction unbound (in vitro; Fraction Unbound (fu), replicate B, individual replicate B of the UC run dated in c8): 0.178 | fraction unbound (in vitro; Fraction Unbound (fu), replicate C, individual replicate C of the UC run dated in c8): 0.191 | fraction unbound (in vitro; Mean fu, fraction unbound in human plasma, ultracentrifugation, some values based on eLOQ): 0.199
